Test results as given in patent publication US20050065208A1, “Benzofuranes and their use in the treatment of atrial fibrillation” (priority 2001, published 2005).
Read-outs that look alike come from different tables or passages of the source.

How the values were obtained:
[1] = target: T1, INa, depolarizing Na-current (Homo sapiens, UniProt Q14524); parameters: key: Yes: The compound has been demonstrated to inhibit the particular current (reference within parenthesis).; No: The compound has been demonstrated to not inhibit the particular current (reference within parenthesis).; U: No data regarding interaction of the compound with the particular current has been found in the literature; settings: Table 2, literature; cited from earlier work
T1 sequence (Q14524 whole entry): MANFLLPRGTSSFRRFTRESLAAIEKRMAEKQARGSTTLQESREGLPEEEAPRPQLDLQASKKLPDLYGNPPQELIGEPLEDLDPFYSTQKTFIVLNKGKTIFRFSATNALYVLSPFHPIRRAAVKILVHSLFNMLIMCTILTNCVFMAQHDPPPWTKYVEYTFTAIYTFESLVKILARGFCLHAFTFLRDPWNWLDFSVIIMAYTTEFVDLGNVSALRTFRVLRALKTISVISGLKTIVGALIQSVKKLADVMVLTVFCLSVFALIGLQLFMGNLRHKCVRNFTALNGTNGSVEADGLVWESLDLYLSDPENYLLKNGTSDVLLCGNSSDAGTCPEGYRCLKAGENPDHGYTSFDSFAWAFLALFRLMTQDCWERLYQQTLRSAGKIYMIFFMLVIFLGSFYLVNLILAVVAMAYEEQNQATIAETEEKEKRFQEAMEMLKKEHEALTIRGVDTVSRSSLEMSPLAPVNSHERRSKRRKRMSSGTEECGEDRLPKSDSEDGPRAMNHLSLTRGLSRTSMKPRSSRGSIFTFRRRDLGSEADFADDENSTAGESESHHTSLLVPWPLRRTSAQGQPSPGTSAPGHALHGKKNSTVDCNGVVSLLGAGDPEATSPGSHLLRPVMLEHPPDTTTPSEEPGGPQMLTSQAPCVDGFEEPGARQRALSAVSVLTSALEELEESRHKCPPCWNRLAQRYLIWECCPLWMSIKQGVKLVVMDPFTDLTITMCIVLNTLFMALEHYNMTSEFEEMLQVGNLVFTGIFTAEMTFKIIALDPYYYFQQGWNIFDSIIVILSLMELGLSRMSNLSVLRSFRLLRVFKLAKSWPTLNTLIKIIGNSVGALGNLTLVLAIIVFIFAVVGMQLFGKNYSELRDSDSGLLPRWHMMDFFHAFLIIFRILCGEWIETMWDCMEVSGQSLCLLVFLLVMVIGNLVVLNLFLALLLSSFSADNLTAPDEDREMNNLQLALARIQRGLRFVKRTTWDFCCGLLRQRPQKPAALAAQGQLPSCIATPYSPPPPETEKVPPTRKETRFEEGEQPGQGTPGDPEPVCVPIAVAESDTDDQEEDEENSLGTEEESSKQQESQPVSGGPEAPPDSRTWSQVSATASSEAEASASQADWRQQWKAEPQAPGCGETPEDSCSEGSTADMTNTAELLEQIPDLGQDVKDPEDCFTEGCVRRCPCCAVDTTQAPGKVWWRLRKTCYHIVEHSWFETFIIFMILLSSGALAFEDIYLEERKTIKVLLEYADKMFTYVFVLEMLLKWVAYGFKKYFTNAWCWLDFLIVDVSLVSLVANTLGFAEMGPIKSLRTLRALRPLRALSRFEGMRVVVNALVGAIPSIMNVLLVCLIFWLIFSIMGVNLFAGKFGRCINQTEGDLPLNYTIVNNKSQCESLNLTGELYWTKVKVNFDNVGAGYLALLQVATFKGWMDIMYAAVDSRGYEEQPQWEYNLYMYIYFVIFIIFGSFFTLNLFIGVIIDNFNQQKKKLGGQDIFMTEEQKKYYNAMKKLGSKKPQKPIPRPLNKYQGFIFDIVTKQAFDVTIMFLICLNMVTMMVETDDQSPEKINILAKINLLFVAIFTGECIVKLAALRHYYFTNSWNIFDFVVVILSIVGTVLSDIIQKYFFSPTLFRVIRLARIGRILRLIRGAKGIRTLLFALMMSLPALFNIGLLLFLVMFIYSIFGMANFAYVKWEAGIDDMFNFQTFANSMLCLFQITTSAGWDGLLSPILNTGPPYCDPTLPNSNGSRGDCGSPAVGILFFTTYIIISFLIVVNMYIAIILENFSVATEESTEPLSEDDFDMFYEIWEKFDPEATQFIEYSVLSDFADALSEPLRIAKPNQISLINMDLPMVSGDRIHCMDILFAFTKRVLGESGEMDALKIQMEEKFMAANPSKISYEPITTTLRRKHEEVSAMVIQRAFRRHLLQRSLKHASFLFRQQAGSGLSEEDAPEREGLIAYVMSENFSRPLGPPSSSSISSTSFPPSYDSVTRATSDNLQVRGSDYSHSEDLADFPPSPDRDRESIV

[2] = target: T2, IK(Ado), adenosine activated K-current (Homo sapiens, UniProt P48544+P48549); parameters: key to Blocking activity on IK(Ado): Yes: The compound has been demonstrated to inhibit the particular current (reference within parenthesis).; No: The compound has been demonstrated to not inhibit the particular current (reference within parenthesis).; U: No data regarding interaction of the compound with the particular current has been found in the literature; settings: cited from earlier work
T2 construct: electrophysiology technique applied to cardiomyocyte cultures; endogenous in cells
T2 sequence (P48549 1-501): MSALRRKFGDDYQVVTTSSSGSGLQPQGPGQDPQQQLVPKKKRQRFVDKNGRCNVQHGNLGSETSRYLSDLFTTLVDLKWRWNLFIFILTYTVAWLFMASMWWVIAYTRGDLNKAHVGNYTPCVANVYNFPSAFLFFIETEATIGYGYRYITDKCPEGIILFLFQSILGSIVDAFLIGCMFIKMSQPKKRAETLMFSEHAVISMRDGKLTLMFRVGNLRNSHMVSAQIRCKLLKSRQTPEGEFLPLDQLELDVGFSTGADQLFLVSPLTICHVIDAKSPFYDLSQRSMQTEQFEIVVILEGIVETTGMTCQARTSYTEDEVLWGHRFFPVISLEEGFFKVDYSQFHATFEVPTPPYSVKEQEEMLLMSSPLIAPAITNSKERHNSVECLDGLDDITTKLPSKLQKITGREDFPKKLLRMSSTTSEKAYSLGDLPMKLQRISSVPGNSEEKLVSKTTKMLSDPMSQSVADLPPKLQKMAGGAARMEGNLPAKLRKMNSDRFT
T2 sequence (P48544 1-419): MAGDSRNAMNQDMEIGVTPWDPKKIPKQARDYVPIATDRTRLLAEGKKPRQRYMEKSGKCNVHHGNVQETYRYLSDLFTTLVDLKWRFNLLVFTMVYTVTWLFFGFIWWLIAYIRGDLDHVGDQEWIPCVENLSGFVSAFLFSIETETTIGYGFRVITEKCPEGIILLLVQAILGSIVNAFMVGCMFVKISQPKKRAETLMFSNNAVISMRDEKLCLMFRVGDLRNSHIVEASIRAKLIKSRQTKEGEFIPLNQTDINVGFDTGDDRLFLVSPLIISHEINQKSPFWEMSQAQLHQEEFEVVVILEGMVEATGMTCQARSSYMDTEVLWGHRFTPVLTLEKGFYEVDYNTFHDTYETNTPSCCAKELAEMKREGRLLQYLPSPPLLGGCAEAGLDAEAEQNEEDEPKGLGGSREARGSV

[3] = system: IK1, inward rectifier K-current; parameters: key: Yes: The compound has been demonstrated to inhibit the particular current (reference within parenthesis).; No: The compound has been demonstrated to not inhibit the particular current (reference within parenthesis).; U: No data regarding interaction of the compound with the particular current has been found in the literature; settings: Table 2, literature; cited from earlier work
[4] = target: T3, IKs, slow component of the delayed rectifier K-current (Homo sapiens, UniProt P51787); parameters: key: Yes: The compound has been demonstrated to inhibit the particular current (reference within parenthesis).; No: The compound has been demonstrated to not inhibit the particular current (reference within parenthesis).; U: No data regarding interaction of the compound with the particular current has been found in the literature; settings: Table 2, literature; cited from earlier work
[5] = target: T4, IK(ATP), ATP-sensitive K-current (Homo sapiens, UniProt Q14654); parameters: key: Yes: The compound has been demonstrated to inhibit the particular current (reference within parenthesis).; No: The compound has been demonstrated to not inhibit the particular current (reference within parenthesis).; U: No data regarding interaction of the compound with the particular current has been found in the literature; settings: Table 2, literature; cited from earlier work
T4 construct: electrophysiology technique applied to cardiomyocyte cultures; endogenous in cells; current induced with dinitrophenole
T4 sequence (Q14654 whole entry): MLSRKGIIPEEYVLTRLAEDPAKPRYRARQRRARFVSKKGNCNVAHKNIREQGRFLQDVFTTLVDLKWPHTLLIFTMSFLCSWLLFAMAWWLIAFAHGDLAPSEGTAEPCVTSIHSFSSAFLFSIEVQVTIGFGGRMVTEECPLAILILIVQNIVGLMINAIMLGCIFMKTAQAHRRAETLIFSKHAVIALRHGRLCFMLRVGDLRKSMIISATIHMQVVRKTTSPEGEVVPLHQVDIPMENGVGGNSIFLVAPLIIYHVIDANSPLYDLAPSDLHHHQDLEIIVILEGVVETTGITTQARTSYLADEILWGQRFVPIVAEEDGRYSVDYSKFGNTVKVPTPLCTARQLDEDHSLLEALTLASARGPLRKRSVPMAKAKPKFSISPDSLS
T4 sequence (O60706 whole entry partner): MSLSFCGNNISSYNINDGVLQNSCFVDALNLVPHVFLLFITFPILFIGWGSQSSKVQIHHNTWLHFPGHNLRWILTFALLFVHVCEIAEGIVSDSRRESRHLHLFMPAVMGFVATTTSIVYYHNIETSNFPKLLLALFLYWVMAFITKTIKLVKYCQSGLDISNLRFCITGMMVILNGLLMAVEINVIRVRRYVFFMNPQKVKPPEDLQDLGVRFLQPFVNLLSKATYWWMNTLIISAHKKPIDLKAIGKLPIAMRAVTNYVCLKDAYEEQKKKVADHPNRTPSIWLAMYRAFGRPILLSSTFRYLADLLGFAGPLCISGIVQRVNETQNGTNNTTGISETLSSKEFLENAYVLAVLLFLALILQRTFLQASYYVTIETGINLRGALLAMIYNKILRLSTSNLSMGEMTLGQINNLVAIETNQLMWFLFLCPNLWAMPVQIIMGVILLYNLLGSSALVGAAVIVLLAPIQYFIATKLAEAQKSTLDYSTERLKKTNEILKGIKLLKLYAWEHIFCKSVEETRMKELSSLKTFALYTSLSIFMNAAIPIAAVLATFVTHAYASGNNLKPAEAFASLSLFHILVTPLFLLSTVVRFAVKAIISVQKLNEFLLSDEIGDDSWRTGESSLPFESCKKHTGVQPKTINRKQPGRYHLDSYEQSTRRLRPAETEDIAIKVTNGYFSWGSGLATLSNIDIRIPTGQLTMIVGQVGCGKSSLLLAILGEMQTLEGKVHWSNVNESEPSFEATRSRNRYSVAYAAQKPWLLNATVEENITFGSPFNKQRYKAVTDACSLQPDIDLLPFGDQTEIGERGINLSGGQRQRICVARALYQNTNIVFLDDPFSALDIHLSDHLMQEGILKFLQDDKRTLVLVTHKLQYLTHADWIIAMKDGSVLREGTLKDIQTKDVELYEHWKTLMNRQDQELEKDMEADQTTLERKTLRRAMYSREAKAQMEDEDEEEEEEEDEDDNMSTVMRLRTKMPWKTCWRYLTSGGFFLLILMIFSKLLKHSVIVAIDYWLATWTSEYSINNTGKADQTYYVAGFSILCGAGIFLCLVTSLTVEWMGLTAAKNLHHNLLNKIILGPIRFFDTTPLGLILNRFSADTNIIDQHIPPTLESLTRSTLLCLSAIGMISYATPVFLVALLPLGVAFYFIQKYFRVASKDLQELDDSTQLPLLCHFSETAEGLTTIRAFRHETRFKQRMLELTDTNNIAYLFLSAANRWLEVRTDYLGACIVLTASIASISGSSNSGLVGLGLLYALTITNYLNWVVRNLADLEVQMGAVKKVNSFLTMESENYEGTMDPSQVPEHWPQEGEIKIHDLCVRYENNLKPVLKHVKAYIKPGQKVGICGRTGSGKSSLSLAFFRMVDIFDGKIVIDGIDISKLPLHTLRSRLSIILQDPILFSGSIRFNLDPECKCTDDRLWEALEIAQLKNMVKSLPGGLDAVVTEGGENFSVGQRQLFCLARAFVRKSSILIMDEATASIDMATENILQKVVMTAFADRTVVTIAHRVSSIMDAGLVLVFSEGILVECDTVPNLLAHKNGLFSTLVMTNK

[6] = target: T5, IK(ACh), AcetylCholine activated K-current (Homo sapiens, UniProt P48544+P48549); parameters: key to Blocking activity on IK(ACh): Yes: The compound has been demonstrated to inhibit the particular current (reference within parenthesis).; No: The compound has been demonstrated to not inhibit the particular current (reference within parenthesis).; U: No data regarding interaction of the compound with the particular current has been found in the literature; settings: cited from earlier work
T5 construct: electrophysiology technique applied to cardiomyocyte cultures; endogenous in cells
T5 sequence (P48549 1-501): T2 sequence (P48549 1-501)
T5 sequence (P48544 1-419): T2 sequence (P48544 1-419)

[7] = system: triiodthyronine (T3)-signalling; assay: Antagonism of T3-signalling action in cells; type: cell-based; settings: manuscript in preparation
[8] = target: T3, IKs, slow component of the delayed rectifier K-current; assay: Voltage clamp: slow component of the delayed rectifier K-current; type: cell-based; parameters: key: Yes: The compound has been demonstrated to inhibit the particular current (reference within parenthesis).; No: The compound has been demonstrated to not inhibit the particular current (reference within parenthesis).; U: No data regarding interaction of the compound with the particular current has been found in the literature; settings: Table 2, own voltage clamp data
Description: (§1) Results from voltage clamp experiments with compounds of the invention on other ion-currents than IK(Ado), IK(ACh) and IK(ATP) are included in Table 2.

[9] = target: T2, IK(Ado), adenosine activated K-current; assay: Voltage clamp on cardiomyocyte cultures: inhibition of adenosine-induced K-current; type: cell-based; parameters: key to Blocking activity on IK(Ado): Yes: The compound has been demonstrated to inhibit the particular current (reference within parenthesis).; No: The compound has been demonstrated to not inhibit the particular current (reference within parenthesis).; U: No data regarding interaction of the compound with the particular current has been found in the literature; settings: for Blocking activity on IK(Ado): Table 2, own voltage clamp data; for inhibition at 50 µM: read-out: Inhibition of IK (Ado) Induced by Adenosine, % Inh
Description: (§2) In the present invention acute and chronic effects of various compounds have been investigated by using electrophysiology technique applied to cardiomyocyte cultures.
(§3) The inhibitory effects occur within seconds after induction of the current with ACh, Ado or dinitrophenole (DNP reduces intracellular ATP). The acute inhibitory effects caused by the compounds of the present invention on these K-currents in cardiac muscle tissue had not previously been discovered. The reasons for this include the fact that these ligand activated K-currents (IK(Ado), IK(ACh) and IK(ATP)) are preferentially active in the atrial cardiomyocytes (Workman A J et al. Cardiovasc Res 1999 September;43(4):974-84; Koumi S-I, and Wasserstorm A. American Journal of Physiology 266[35], H1812-H1821. 1994), while previous studies have been carried out with tissue from cardiac ventricles. Furthermore, IK(Ado) and IK(ACh) must first be induced via the M2 or A1 receptor (with ACh and Ado respectively) before any inhibition can be observed. Without any agonist at the extracellular site of the membrane these ligand-gated channels probably have only minor roles in shaping repolarization but, when activated by extracellular acetylcholine or adenosine, they can substantially shorten action potential duration in the atrium (Tristani-Firouzi M et al. Am J Med 2001 January; 110(1):50-9).
(§4) The following Table 1 illustrates the potency (IC50-values) of compounds of formulae I and II compared with other anti-arrhythmic drugs to inhibit the transmembrane currents IK(Ado) and IK(ACh) after stimulation of the currents with Adenosine or Acetylcholine (or Carbachol).

[10] = target: T5, IK(ACh), AcetylCholine activated K-current; assay: Voltage clamp on cardiomyocyte cultures: inhibition of K-current induced by ACh or carbachol; type: cell-based; parameters: key to Blocking activity on IK(ACh): Yes: The compound has been demonstrated to inhibit the particular current (reference within parenthesis).; No: The compound has been demonstrated to not inhibit the particular current (reference within parenthesis).; U: No data regarding interaction of the compound with the particular current has been found in the literature; settings: for Blocking activity on IK(ACh): Table 2, own voltage clamp data; for inhibition at 50 µM: read-out: Inhibition of IK (ACh) (Induced by ACh or Carbachol), % Inh
Description: as §2, §3, §4

[11] = system: IK1, inward rectifier K-current; assay: Voltage clamp: inward rectifier K-current; type: cell-based; parameters: key: Yes: The compound has been demonstrated to inhibit the particular current (reference within parenthesis).; No: The compound has been demonstrated to not inhibit the particular current (reference within parenthesis).; U: No data regarding interaction of the compound with the particular current has been found in the literature; settings: Table 2, own voltage clamp data
Description: as §1

[12] = system: Ito, transient outward K-current; assay: Voltage clamp: transient outward K-current; type: cell-based; parameters: key: Yes: The compound has been demonstrated to inhibit the particular current (reference within parenthesis).; No: The compound has been demonstrated to not inhibit the particular current (reference within parenthesis).; U: No data regarding interaction of the compound with the particular current has been found in the literature; settings: Table 2, own voltage clamp data
Description: as §1

[13] = target: T4, IK(ATP), ATP-sensitive K-current; assay: Voltage clamp on cardiomyocyte cultures: inhibition of ATP-sensitive K-current (induced with DNP); type: cell-based; parameters: key: Yes: The compound has been demonstrated to inhibit the particular current (reference within parenthesis).; No: The compound has been demonstrated to not inhibit the particular current (reference within parenthesis).; U: No data regarding interaction of the compound with the particular current has been found in the literature; settings: Table 2, own voltage clamp data
Description: as §2, §3

[14] = target: T1, INa, depolarizing Na-current; assay: Voltage clamp: depolarizing Na-current; type: cell-based; parameters: key: Yes: The compound has been demonstrated to inhibit the particular current (reference within parenthesis).; No: The compound has been demonstrated to not inhibit the particular current (reference within parenthesis).; U: No data regarding interaction of the compound with the particular current has been found in the literature; settings: Table 2, own voltage clamp data
Description: as §1

Structure (SMILES)	Blocking activity on INa [1]	Blocking activity on IK(Ado) ([2]; Table 2, literature)	Block of ligand-gated current IK(Ado), in words ([2]; Watanabe et al.)	IC50 ([2]; current induced by adenosine, literature value, read-out: Inhibition of IK (Ado) Induced by Adenosine (IC50)) [µM]	Blocking activity on IK1 [3]	Blocking activity on IKs [4]	Blocking activity on IK(ATP) [5]	Blocking activity on IK(ACh) ([6]; Table 2, literature)	Block of ligand-gated current IK(ACh), in words ([6]; Watanabe et al.)	IC50 ([6]; current induced by ACh or carbachol, literature value, read-out: Inhibition of IK (ACh) (Induced by ACh or Carbachol) (IC50)) [µM]	Antagonism of triiodthyronine (T3)-signalling action in cells [7]	Blocking activity on IKs [8]	Blocking activity on IK(Ado) [9]	inhibition at 50 µM [9] [%]	Blocking activity on IK(ACh) [10]	inhibition at 50 µM [10] [%]	Blocking activity on IK1 [11]	Blocking activity on Ito [12]	Blocking activity on IK(ATP) [13]	Blocking activity on INa [14]
CCCCc1oc2ccccc2c1C(=O)c1cc(I)c(OCCN(CC)CC)c(I)c1 [Amiodarone]	Yes	Yes	does block	2	Yes	Yes	Yes	Yes	does block	2	antagonize									
Cc1oc2ccccc2c1Cc1cc(C(C)C)c(OCC(=O)O)c(C(C)C)c1 [Example E4, 2-methyl-3-(3,5-diisopropyl-4-carboxymethoxybenzyl)benzofuran]												No	Yes	100	Yes	100	No	No	Yes	No
Cc1oc2ccccc2c1Cc1cc(I)c(OCC(=O)O)c(I)c1 [Example E6, 2-methyl-3-(3,5-diiodo-4-carboxymethoxy-benzyl)benzofuran]												No	Yes	100	Yes	100	No	No	Yes	No
